Assay results published in patent publication US20030220521A1, “Renal-selective prodrugs for control of renal sympathetic nerve activity in the treatment of hypertension” (G.D. Searle & Co., priority 1989, published 2003).

How the values were obtained:
male SHR = experiment: Assay XIII: renal blood flow experiments in anesthetized SHR (renal denervation, bulbocapnine); assay type: in vivo, rat; conditions: for Mean arterial pressure / Renal Blood Flow: conjugate alone
Procedure: This experiment was run to determine the roles of the renal sympathetic nerves and dopamine in the antihypertensive response to Ex. #859. For renal blood flow experiments, male SHR (11-13 weeks of age; Harlan Sprague-Dawley, Inc., Indianapolis, Ind.) were anesthetized (Inactin, 100 mg/kg, i.p.), catheters were implanted in a jugular vein and carotid artery, and an electromagnetic flow probe (Carolina Medical Electronics, Inc., King, N.C.) was placed on the left renal artery. Care was taken not to damage the renal nerves. A tracheal catheter maintained airway patency. The SHR were placed on a heated pad to maintain normal body temperature (Harvard Apparatus, South Natick, Mass.). In one group of SHR (n=6) surgical renal denervation was performed (prior to implanting the flow probe) through a left flank incision by surgically stripping the renal artery and vein of adventitia and cutting all visible renal nerve bundles under a dissection microscope (×25) and coating the vessels with a solution of 10% phenol in 95% ethanol, as previously described (9,10). In a second group of SHR (n=6) bulbocapnine (a dopamine receptor antagonist) was infused at 100 μg/kg/min starting 30 minutes prior to injection of Ex. #859 (50 mg/kg, i.v.) and continued for the duration of the study. In a third group of SHR (n=6) Ex. #859 (50 mg/kg, i.v.) was administered alone. In a final group of SHR (n=6) vehicle (0.9% NaCl) was administered. SHR were allowed 60 minutes for stabilization after surgery. After the stabilization period, 15 minutes of control mean arterial pressure and renal blood flow were obtained. Mean arterial pressure and renal blood flow were recorded for one hour.

[1] = tested on: gamma-glutamyl transpeptidase and acylase I; experiment: Assay IV: metabolism of conjugate by purified transpeptidase and acylase; assay type: in vitro ADME
Procedure: […] The resulting suspension, diluted with buffer, was incubated in the presence of the Ex. #859 conjugate at 37° C. At various times aliquots were removed, deproteinized with an equal volume of cold trichloroacetic acid (25%) and centrifuged. The supernatant was injected onto a C-18 reverse-phase HPLC column and eluted isocratically with a mixture of acetonitrile and water (20:80 v/v) containing trifluoroacetic acid (0.05%). Eluted compounds were monitored by absorbance at 254 nm and compared to standards run under identical conditions. In the assay using pure kidney enzyme homogenate, the Ex. #859 conjugate was also incubated under the same conditions as described except that 5 mg of gamma-glutamyl transpeptidase (Sigma, 23 units/mg) and 10 mg of acylase I (Sigma, 4800 units/mg) were added in place of the homogenate. Analysis by HPLC was performed in a manner identical to that used for the kidney homogenate experiment.

Male mongrel dogs = experiment: Assay XII: acute i.v. effects on mean arterial pressure and renal blood flow in anesthetized dogs; assay type: in vivo, dog
Procedure: This experiment was run to determine the renal selectivity of conjugate of the invention in dogs. Male mongrel dogs (15-20 kg/n=8; Antech, Inc., Barnhard, Mo.) were anesthetized with sodium pentobarbital (30 mg/kg as i.v. bolus, and 4-6 mg/kg/hr infusion) and catheters were placed in the femoral veins for compound injection or pentobarbital infusion, and the femoral artery for arterial pressure recording. An electromagnetic flow probe (Carolina Medical Electronics, Inc., King, N.C.) was placed around the left renal artery for measurement of renal blood flow. Renal blood flow and arterial pressure were recorded on a Gould chart recorder. After surgery, 20-30 minutes were allowed for variables to stabilize. […] Variables were monitored for the next three hours. Results are shown in Table XXXIV and FIGS. 14 and 15.

[2] = tested on: DOCA hypertensive micropigs; experiment: Assay XIV: chronic in vivo effects in DOCA hypertensive micropigs; design: species or system micropig; conditions: for Mean arterial pressure: 5 mg/kg/hr infusion
Procedure: This study examines the efficacy of Ex. #859 in deoxycorticosterone acetate ([…]) hypertensive micropigs (Charles River; 6 months of age). Micropigs were made hypertensive by implanting subcutaneously DOCA strips (100 mg/kg) under isoflurane anesthesia. Hypertension stabilizes after one month. Mean arterial pressure was measured using a Gould chart recorder and Statham P23dB transducers. After one month Ex. #859 conjugate was infused for three days at 5 mg/kg/hr).

anesthetized dog = experiment: Assay XI: intrarenal administration of fusaric acid in anesthetized dogs (MAP, RBF, UNaV); assay type: in vivo
[3] = 7 mg/kg, 1 hour after injection
[4] = 7 mg/kg, 2 hour after injection
[5] = 7 mg/kg, 3 hour after injection
[6] = 20 mg/kg i.v., 1 hour after injection
[7] = 20 mg/kg i.v., 2 hour after injection
[8] = 20 mg/kg i.v., 3 hour after injection
[9] = 60 mg/kg i.v., 1 hour after injection
[10] = 60 mg/kg i.v., 2 hour after injection
[11] = 60 mg/kg i.v., 3 hour after injection
[12] = Dog #1, intrarenal infusion 1.25 mg/kg/min
[13] = Dog #2, intrarenal infusion 0.75 mg/kg/min
[14] = anesthetized dog, bolus intrarenal 0.5, 1.0 and 5.0 mg/kg

## CCCCc1ccc(C(=O)NNC(=O)CCC(NC(C)=O)C(=O)O)nc1 [Ex. #859, N-acetyl-L-glutamic acid, 5-[(5-butyl-2-pyridinyl)-carbonyl]hydrazide]
other
  melting point: 191.5 to 192 °C
Male SHR; anesthetized SHR, 50 mg/kg i.v. after surgical renal denervation
  effect on renal blood flow: not changed
Male SHR; anesthetized SHR, 50 mg/kg i.v. alone, 60 minutes after injection
  effect on renal blood flow: increased
Male SHR; anesthetized SHR, 50 mg/kg i.v. during bulbocapnine infusion (100 μg/kg/min)
  effect on renal blood flow: not changed
Male SHR; anesthetized SHR, 50 mg/kg i.v., all groups
  effect on mean arterial pressure: not changed
Male SHR; time 0 minutes
  Mean arterial pressure: 149 ± 8 mmHg
  Renal Blood Flow: 7 ± 2 mL/min
Male SHR; time 60 minutes
  Mean arterial pressure: 149 ± 7 mmHg
  Renal Blood Flow: 12 ± 2 mL/min
[1]; 3 h, pH 7.4
  Fusaric Acid formed from conjugate: 0.00 µg/mL
[1]; 3 h, pH 8.1
  Fusaric Acid formed from conjugate: 0.00 µg/mL
[1]; 24 h, pH 7.4
  Fusaric Acid formed from conjugate: 2.56 µg/mL
[1]; 24 h, pH 8.1
  Fusaric Acid formed from conjugate: 1.12 µg/mL
[1]; 72 h, pH 7.4
  Fusaric Acid formed from conjugate: 12.15 µg/mL
[1]; 72 h, pH 8.1
  Fusaric Acid formed from conjugate: 4.46 µg/mL
[1]; 96 h, pH 7.4
  Fusaric Acid formed from conjugate: 15.44 µg/mL
[1]; 96 h, pH 8.1
  Fusaric Acid formed from conjugate: 5.22 µg/mL
[1]; 120 h, pH 7.4
  Fusaric Acid formed from conjugate: 18.75 µg/mL
[1]; 120 h, pH 8.1
  Fusaric Acid formed from conjugate: 6.55 µg/mL
[1]; purified gamma-glutamyl transpeptidase and acylase I
  species present after incubation: only fusaric acid and the unreacted compound being present
Male mongrel dogs; [3]
  Mean arterial pressure: 116 ± 5 mmHg
  Renal Blood Flow: 92 ± 5 mL/min
Male mongrel dogs; [4]
  Mean arterial pressure: 113 ± 4 mmHg
  Renal Blood Flow: 111 ± 14 mL/min
Male mongrel dogs; [5]
  Mean arterial pressure: 114 ± 4 mmHg
  Renal Blood Flow: 118 ± 23 mL/min
Male mongrel dogs; 7 mg/kg, time zero
  Mean arterial pressure: 114 ± 6 mmHg
  Renal Blood Flow: 92 ± 5 mL/min
Male mongrel dogs; [6]
  Mean arterial pressure: 124 ± 2 mmHg
  Renal Blood Flow: 107 ± 14 mL/min
Male mongrel dogs; [7]
  Mean arterial pressure: 125 ± 3 mmHg
  Renal Blood Flow: 122 ± 20 mL/min
Male mongrel dogs; [8]
  Mean arterial pressure: 125 ± 4 mmHg
  Renal Blood Flow: 126 ± 24 mL/min
Male mongrel dogs; 20 mg/kg i.v., time zero
  Mean arterial pressure: 120 ± 3 mmHg
  Renal Blood Flow: 88 ± 11 mL/min
Male mongrel dogs; [9]
  Mean arterial pressure: 124 ± 1 mmHg
  Renal Blood Flow: 145 ± 21 mL/min
Male mongrel dogs; [10]
  Mean arterial pressure: 126 ± 3 mmHg
  Renal Blood Flow: 168 ± 28 mL/min
Male mongrel dogs; [11]
  Mean arterial pressure: 120 ± 4 mmHg
  Renal Blood Flow: 176 ± 32 mL/min
Male mongrel dogs; 60 mg/kg i.v., time zero
  Mean arterial pressure: 123 ± 3 mmHg
  Renal Blood Flow: 131 ± 21 mL/min
[2]; Day 1
  Mean arterial pressure: 151 ± 4
[2]; Day 2
  Mean arterial pressure: 132 ± 4
[2]; Day 3
  Mean arterial pressure: 119 ± 3
[2]; conscious DOCA hypertensive micropigs, infusion 5 mg/kg/hr for three days
  effect on mean arterial pressure: normalized mean arterial pressure

## CCCCc1ccc(C(=O)O)nc1 [Fusaric Acid, 5-n-butylpicolinic acid]
Anesthetized dog; [12]
  MAP: 136 mm Hg
  UNa V: 82 μEqlmin
  Δ RBF: 240 mL/min
Anesthetized dog; [13]
  MAP: 148 mm Hg
  UNa V: 13 μEqlmin
  Δ RBF: 315 mL/min
Anesthetized dog; [14]
  effect on mean arterial pressure: no significant effect
  effect on renal blood flow: dose-related increases
  effect on urinary sodium excretion: no significant effect
Anesthetized dog; anesthetized dog, bolus intrarenal injection 0.1 mg/kg
  effect on MAP, RBF and UNaV: no effect on any measure
Anesthetized dog; intrarenal bolus 0.1 mg/kg
  MAP: 136 mm Hg
  UNa V: 21.2 μEq/min
  Δ RBF: 0 mL/min
Anesthetized dog; intrarenal bolus 0.5 mg/kg
  MAP: 136 mm Hg
  UNa V: 23.8 μEq/min
  Δ RBF: +46 ml/min
Anesthetized dog; intrarenal bolus 1.0 mg/kg
  MAP: 138 mm Hg
  UNa V: 21.1 μEq/min
  Δ RBF: +58 ml/min
Anesthetized dog; intrarenal bolus 5.0 mg/kg
  MAP: 140 mm Hg
  UNa V: 34.8 μEq/min
  Δ RBF: +132 ml/min
